Measured values as given in US6525055B1, “Tricyclic phthalazine derivatives as phosphodiesterase 4 inhibitors” (Zambon Group S.p.A., priority 1998, dated 2003).

Molecular target: PDE 4 enzyme
Experiment: PDE 4 enzyme inhibition (SPA)
Assay type: biochemical
Conditions: PDE 4 purified from human PMNs, cAMP 1 μM, 40 minutes at 30° C.
Text: Evaluation of the PDE 4 Enzyme Inhibition a) Purification of Human Polymorphonucleate Leukocytes
The polymorphonucleate leukocytes (PMNs) were isolated from peripheral blood of healthy volunteers according to what described by Boyum A., Scand. J. Immunol., 1976, 5th suppl., 9). Shortly, the isolation of the PMNs was effected by Ficoll-Paque gradient centrifugation followed by sedimentation on dextrane and the erythrocyte contamination was eliminated by hypotonic lysis. […]
b) PDE 4 Enzyme Purification
The human PMNs were re-suspended in TRIS/HCl buffer (10 mM pH 7.8) containing MgCl2 (5 mM), EGTA (4 mM), mercaptoethanol (5 mM), TRlTON-X100 (1%), pepstatin A (1 μM), PMSF (100 μM) and leupeptin (1 μM), and homogenised by Polytron. […]
The enzyme activity was evaluated with an Amersham kit based on the SPA (Scintillation Proximity Assay) technique. […] The radioactivity due to the particles was measured in a […]. The results are expressed as percent activity versus the control present in each experiment. The IC50 values were calculated over 9 equidistant concentrations in logarithmic scale using a 4-parameters logistic function by software.

IC50: 207 nM
Structure (SMILES): COc1ccc2c(Cc3c(Cl)cncc3Cl)nn3c(C)nnc3c2c1 [Compound 2, 6-(3,5-Dichloro-pyridin-4-ylmethyl)-9-methoxy-3-methyl-[1,2,4]-triazole-[3,4-a]-phthalazine]
